Test results taken from US10882826B2, “Quinolinone or quinazolinone comprising antibiofilm compositions, compounds and methods and uses relating thereto” (University College Cork—National University of Ireland, priority 2015, dated 2021).

Columns and labels:
[1] = tested on: A. fumigatus Af293 biofilm; assay: A. fumigatus biofilm assay (crystal violet); type: cell-based, Aspergillus fumigatus; details: for effectiveness against fungal biofilms formed by Aspergillus fumigatus (in words): summary statement
[2] = tested on: A. fumigatus CFBRC1 biofilm; assay: A. fumigatus biofilm assay, clinical source CFBRC1; type: cell-based, Aspergillus fumigatus; details: biofilm from clinical source CFBRC1
Experimental: (§1) A. fumigatus Af293 was grown on SDA in 100 ml cell culture flasks at 37° C. for 3-4 days. Conidia were harvested by flooding the surface of the agar plates with 5 ml PBS (Oxoid) containing 0.025% (v/v) Tween 20 and gently moving the liquid over the surface of the fungal lawn. The conidial suspension was transferred into a 25 ml sterile container and conidia were counted using a Neubauer haemocytometer and light microscope. Conidia were adjusted to the required concentration in RPMI 1640 (Sigma) buffered to pH 7.0 with 0.165 M MOPS immediately prior to biofilm formation analysis.
(§2) To assess biofilm formation, counted A. fumigatus spores (1×10^5) in MOPS buffered RPMI 1640 were inoculated into 24- and 96-well plates and grown overnight in the presence of 100 μM HHQ, PQS and the test compounds. After 24 hrs, the media was removed and the biofilm washed twice with distilled water after which 0.1% crystal violet (CV) was added to each well and allowed to stand for 1 hr at room temperature. The crystal violet was removed and all wells washed in a water bath by inversion. Ethanol was added to each well to solubilise biofilms after which samples were read on a spectrophotometer at Abs595 nm.
(§3) The above experiments were carried out using biofilms grown from laboratory sources of A. fumigatus. The experiments were repeated to test some compounds against biofilms grown from three different clinical sources of A. fumigatus (CFBRC1, CFBRC2 and CFBRC3. The results are shown in table 8: […]

[3] = tested on: A. fumigatus CFBRC2 biofilm; assay: A. fumigatus biofilm assay, clinical source CFBRC2; type: cell-based, Aspergillus fumigatus; details: biofilm from clinical source CFBRC2
Experimental: as §1, §2, §3

[4] = tested on: A. fumigatus CFBRC3 biofilm; assay: A. fumigatus biofilm assay, clinical source CFBRC3; type: cell-based, Aspergillus fumigatus; details: biofilm from clinical source CFBRC3
Experimental: as §1, §2, §3

mammalian cells = assay: Cytotoxicity towards mammalian cells (summary statement); type: cell-based
Pseudomonus aeruginosa = assay: Virulence of Pseudomonas aeruginosa (summary statement); type: cell-based; details: unlike HHQ and PQS
DU145 = assay: LDH release cytotoxicity, DU145; type: cell-based; details: DU145 cell line; percentage of 0.1% Triton
Experimental: Lactate dehydrogenase (LDH) release from IB3 lung epithelial cells was assayed as a measure of cytotoxicity using an LDH colorimetric kit (Roche) according to manufacturers' instructions. Briefly, IB3-1 cells were seeded onto 96 well plates and treated with methanol (control) and test compounds (100 μM). Following 16 hr incubation at 37° C. and 5% CO2, supernatants were removed and added to catalyst reaction mixture in a fresh plate and further incubated at 37° C. and 5% CO2 for 30 mins to allow for colour development. After this period, the plate was analysed on an ELISA plate reader at OD490 nm. Cytotoxicity was expressed as a percentage of cells treated with 0.1% (v/v) Triton (100% cytotoxicity). The results are detailed in table 3:
The above experiments were repeated, testing some compounds against further cell lines (A549, DU145 and HeLa).

Compound: CCCCCCCc1nc2ccccc2c(=O)n1N [Compound C2]
- Relative absorbance at 595 nm compared to methanol control, Mean ([1]; A. fumigatus Af293 biofilm, 100 μM, 24 hrs, crystal violet): 0.37
- effectiveness against fungal biofilms formed by Aspergillus fumigatus (in words) [1]: effective
- Relative absorbance compared to MeOH (=1), Mean [2]: 0.310
- Relative absorbance compared to MeOH (=1), Mean [3]: 0.304
- Relative absorbance compared to MeOH (=1), Mean [4]: 0.292
- cytotoxicity towards mammalian cells (in words) (mammalian cells): reduced cytotoxicity
- effect on virulence of Pseudomonus aeruginosa (in words) (Pseudomonus aeruginosa): do not increase the virulence

Compound: CCCCCCCc1cc(=O)c2cc(Cl)ccc2[nH]1 [Compound C4]
- Cytotoxicity, Mean (LDH release) (DU145): 24.42%
- effectiveness against fungal biofilms formed by Aspergillus fumigatus (in words) [1]: effective
- cytotoxicity towards mammalian cells (in words) (mammalian cells): reduced cytotoxicity
- effect on virulence of Pseudomonus aeruginosa (in words) (Pseudomonus aeruginosa): do not increase the virulence

Compound: CCCCCCCc1cc(=O)c2cccc(Cl)c2[nH]1 [Compound C5]
- Relative absorbance compared to MeOH (=1), Mean [2]: 0.297
- Relative absorbance compared to MeOH (=1), Mean [3]: 0.359
- Relative absorbance compared to MeOH (=1), Mean [4]: 0.483
- cytotoxicity towards mammalian cells (in words) (mammalian cells): reduced cytotoxicity
- effect on virulence of Pseudomonus aeruginosa (in words) (Pseudomonus aeruginosa): do not increase the virulence
